Columns and labels:
Assay type in all cases: cell-based
[1] = Cellular toxicity, same assay as Example B.4 without TAM (Example B.5); settings: mouse; Pfa1 cells without TAM; read-out: TC50 (the source's name)
Text: Cellular Toxicity of Compounds of the Invention
An estimate of the toxicity for compounds of the invention was obtained by using the same assay as described in Example B.4, but without the addition of TAM. […] Such TC50 values obtained for certain compounds disclosed herein, together with an approximate therapeutic window (estimated by dividing each TC50 by the corresponding IC50 determined from example B.4) are shown in Table 3.

[2] = tested on: mouse hippocampal cell line (Ht22); assay: Inhibition of glutamate-induced non-apoptotic cell death (Example B.2); settings: HT-22, Ht22 cells, glutamate-induced cell death, read-out: Ht22/GLU
Text: Inhibition of Glutamate-Induced Non-Apoptotic Cell Death by Compounds of the Present Invention
Glutamate toxicity is conferred on cells from the mouse hippocampal cell line (Ht22) by inhibition of the cysteine/glutamate antiporter, System xc-, leading to impaired cysteine uptake and subsequent GSH depletion. This model is frequently used for mimicking glutathione depletion following oxidative stress in stroke, brain trauma and other neurodegenerative diseases and cellular conditions following ischemia (for example: van Leyen et al, J. Neurochem. 92:824-30 (2005)).
Compounds disclosed herein were evaluated for their ability to promote cell survival upon administration of a lethal dose of glutamate (GLU) to the cell-culture medium.
Briefly, Ht22 cells (ATCC) were propagated DMEM supplemented with 10% FBS/1% Penicillin-Streptomycin, and then seeded onto 96-well plates at a concentration of 2,000 cells/well in 100 μL of MEDIA, simultaneously with glutamate (Sigma Aldrich) to a final concentration of 5 mM, together with increasing concentrations of the compound to be tested (0.5 pM to 100 μM), and the plates incubated at 37° C./5% CO2 for 72 hours. Compound dilutions were prepared from 10 mM stocks dissolved in DMSO and diluted in media. Cells treated with glutamate alone were used as negative control and alpha-tocopherol (Sigma Aldrich) was used as positive control. Compound concentrations were tested in triplicate. After incubation, cell survival was detected and quantified as described in Example B.1.

[3] = tested on: human neuroblastoma cell line SH-SY5Y; assay: Inhibition of BSO-induced non-apoptotic cell death (Example B.1); settings: SH-SY5Y cells, 50 μM BSO, 72 hours, read-out: SH-SY5Y/BSO IC50
Text: Inhibition of BSO-Induced Non-Apoptotic Cell Death by Compounds Disclosed Herein
L-Buthionine sulfoximine (BSO) is a well-known glutathione (GSH) depletory, which inhibits gamma-glutamyl-cysteine-synthetase, the enzyme catalyzing the rate-limiting step in GSH biosynthesis. The human neuroblastoma cell line SH-SY5Y is sensitive to BSO-induced intracellular glutathione depletion, which causes high levels of reactive oxygen species (ROS) and cellular stress mimicking cellular conditions following ischemia (cf., e.g., Yamada et al., Neurochem. Int. 59:1003-9 (2011)).
Compounds disclosed herein were evaluated for their ability to promote cell survival upon administration of a lethal dose of BSO to cell-culture medium. Briefly, SH-SY5Y cells (ATCC® CRL-2266™) were propagated in DMEM supplemented with 10% FBS/1% Penicillin-Streptomycin, and then seeded onto 96-well plates at a concentration of 750 cells/well in 100 μL of media, to which BSO (Sigma Aldrich) was added (to a final concentration of 50 μM) together with increasing concentrations of the compound to be tested, and the plates incubated at 37° C./5% CO2 for 72 hours. Compound dilutions (0.5 pM to 100 μM) were prepared from 10 mM stocks dissolved in DMSO and diluted in media. Cells treated with BSO alone were used as negative control and alpha-Tocopherol (Sigma Aldrich) was used as positive control. Compound concentrations were tested in triplicate. After incubation, cell survival was detected using the live/dead cell assay AquaBluer™ (MultiTarget Pharmaceuticals) and quantified using a fluorescence plate reader (excitation filter: 530-560 nm/emission filter: 590 nm) (SpectraMax M4; Molecular Devices). Fluorescence data so obtained was normalised to the percentage of surviving cells and IC50 values calculated using the GraphPad Prism (GraphPad Software, Inc) software package.

Pfa1 cells = assay: Inhibition of non-apoptotic cell death after tamoxifen-induced GPx4 knockout in a recombinant cell line (Example B.4); settings: Mus musculus, read-out: Pfa1/TAM IC50
Text: Inhibition of Non-Apoptotic Cell-Death by Compounds Disclosed Herein Using a Recombinant Cell Line
To combat high intracellular ROS levels, mammalian cells have evolved an intricate network of ROS scavenging in cells, in which the thioredoxin and glutathione (GSH) dependent systems prevail. […] Knockout of GPx4 in neurons causes massive neurodegeneration in cortical, cerebellar and hippocampal neurons underscoring the high relevance of ROS-induced cell death signaling in the brain. Briefly, immortalised fibroblasts from these mice were made to contain tamoxifen-inducible CreERT2, which catalyzes the functional ablation of both copies of GPx4 and resulting in a complete knockout of GPx4, a massive ROS burst, and cell death in cell culture. These cells (Pfa1 cells) were used to characterize compounds of the present invention, whereby tamoxifen (TAM) was given on day 0 along with the compound under test, and 72 hours later cell survival was evaluated using AlamarBlue.

| Structure (SMILES) | CC50 [1] [nM] | IC50 [2] [nM] | IC50 [3] [nM] | IC50 (Pfa1 cells) [nM] |
| --- | --- | --- | --- | --- |
| Clc1cccc(CNC2=Nc3cc(Cl)c(Cl)cc3NC23CCOCC3)c1 [O/S-94] | 10000 to 20000 | < 500 | < 50 | < 50 |
| CCCCCCCCCCCCN1CCC2(CC1)Nc1ccccc1N=C2NCc1ccccc1 [N-261] | 2000 to 5000 | < 200 | < 20 | < 100 |
| FC1(F)Oc2cc3c(cc2O1)NC1(CCCCC1)C(NCc1ccccc1)=N3 [C-256] | 20000 to 50000 | < 200 | < 50 | < 100 |
| CC1(C)CCC2(CC1)Nc1ccccc1N=C2NCc1ccccc1 [C-253] | 10000 to 20000 | < 1000 | < 100 | < 1000 |
| Cc1cccc(CNC2=Nc3cc(Cl)c(Cl)cc3NC23CCOCC3)c1 [O/S-342] | 20000 to 50000 | < 500 | < 100 | < 50 |
| Fc1cc2c(cc1F)NC1(CCNCC1)C(NCc1ccccc1Cl)=N2 [N-259] | 1000 to 2000 | < 50 | < 10 | < 50 |
| CN1CCC2(CC1)Nc1cc(Cl)c(Cl)cc1N=C2NCc1ccccc1 [N-230] | 500 to 1000 | < 10 | < 10 | < 10 |
| CC1CCC2(CC1)Nc1ccccc1N=C2NCc1ccccc1 (stereo not drawn) [C-252] | 10000 to 20000 | < 1000 | < 200 | < 1000 |
| Clc1cc2c(cc1Cl)NC1(CCNCC1)C(NCc1ccccc1)=N2 [N-205] | 1000 to 2000 | < 50 | < 20 | < 10 |
| FC(F)(F)c1cccc(CNC2=Nc3cc(Cl)c(Cl)cc3NC23CCNCC3)c1 [N-260] | 500 to 1000 | < 50 | < 20 | < 20 |
| Clc1ccc(CNC2=Nc3ccccc3NC23CCOCC3)cc1Cl [O/S-345] | 20000 to 50000 | < 500 | < 100 | < 100 |
| Cc1cc2c(cc1C)NC1(CCCCCC1)C(NCc1cccc(Cl)c1)=N2 [C-255] | 5000 to 10000 | < 200 | < 50 | < 200 |
| Clc1ccc(CNC2=Nc3ccccc3NC23CCNCC3)c(Cl)c1 [N-56] | 1000 to 2000 | < 50 | – | < 10 |
| Clc1cccc(CCNC2=Nc3ccccc3NC23CCCCC3)c1 [C-79] | 2000 to 5000 | < 500 | – | < 500 |
| Cc1cc(C)cc(CNC2=Nc3ccccc3NC23CCSCC3)c1 [O/S-357] | 10000 to 20000 | < 500 | – | < 500 |
| Clc1cccc(CCNC2=Nc3ccccc3NC23CCOCC3)c1 [O/S-79] | 20000 to 50000 | < 1000 | – | < 1000 |
| Fc1cc(Cl)ccc1CNC1=Nc2ccccc2NC12CCOCC2 [O/S-61] | 20000 to 50000 | < 1000 | – | < 1000 |
| CC(NC1=Nc2ccccc2NC12CCNCC2)c1ccccc1 (stereo not drawn) [N-218] | 20000 to 50000 | < 500 | – | < 500 |
| CN1CCC2(CC1)Nc1ccccc1N=C2NCc1ccccc1Cl [N-209] | 5000 to 10000 | < 500 | – | < 100 |
| FC(F)(F)c1cccc(CNC2=Nc3ccccc3NC23CCSCC3)c1 [O/S-189] | 50000 to 100000 | < 5000 | – | < 5000 |
| CC(C)(C)c1ccc(CNC2=Nc3ccccc3NC23CCOCC3)cc1 [O/S-350] | 20000 to 50000 | < 500 | – | < 500 |
| Clc1ccccc1CNC1=Nc2ccccc2NC12CCSCC2 [O/S-167] | 20000 to 50000 | < 1000 | – | < 500 |
| Clc1cc2c(cc1Cl)NC1(CCCNCC1)C(NCc1ccccc1)=N2 (stereo not drawn) [N-236] | 2000 to 5000 | < 50 | – | < 100 |

| Structure (SMILES) | CC50 [1] [nM] | IC50 [2] [nM] | IC50 [3] [nM] | IC50 (Pfa1 cells) [nM] |
| --- | --- | --- | --- | --- |
| Clc1ccc(CNC2=Nc3ccccc3NC23CCCCCC3)cc1 [C-220] | 10000 to 20000 | < 500 | – | < 200 |
| c1ccc(CCCNC2=Nc3ccccc3NC23CCOCC3)cc1 [O/S-343] | 20000 to 50000 | < 5000 | – | < 2000 |
| c1ccc(CCNC2=Nc3ccccc3NC23CCCCC3)cc1 [C-226] | 10000 to 20000 | < 2000 | – | < 1000 |
| Clc1ccc(CNC2=Nc3ccccc3NC23CCCCC3)cc1 [C-3] | 20000 to 50000 | < 500 | – | < 200 |
| Fc1ccc(CNC2=Nc3ccccc3NC23CCSCC3)c(F)c1 [O/S-359] | 50000 to 100000 | < 5000 | – | > 5000 |
| Fc1ccc(CNC2=Nc3ccccc3NC23CCNCC3)c(F)c1 [N-221] | 20000 to 50000 | < 200 | – | < 200 |
| Fc1ccc(CNC2=Nc3ccccc3NC23CCCCCC3)c(F)c1 [C-242] | 10000 to 20000 | < 1000 | – | < 1000 |
| Clc1cccc(CNC2=Nc3cc(Cl)c(Cl)cc3NC23CCNCC3)c1 [N-115] | 200 to 500 | < 50 | – | < 10 |
| Fc1cccc(F)c1CNC1=Nc2ccccc2NC12CCOCC2 [O/S-341] | 50000 to 100000 | < 2000 | – | < 2000 |
| Cc1cccc(CNC2=Nc3cc(C)c(C)cc3NC23CCNCC3)c1 [N-235] | 1000 to 2000 | < 50 | – | < 50 |
| CC(CCc1ccccc1)NC1=Nc2ccccc2NC12CCOCC2 (stereo not drawn) [O/S-353] | 20000 to 50000 | < 2000 | – | < 500 |
| Cc1cc2c(cc1C)NC1(CCCCC1)C(NCc1ccccc1)=N2 [C-218] | 20000 to 50000 | < 100 | – | < 100 |
| CC(C)(C)c1ccc(CNC2=Nc3ccccc3NC23CCCCC3)cc1 [C-269] | 5000 to 10000 | < 500 | – | < 200 |
| CN1CCC2(CC1)Nc1ccccc1N=C2NCc1ccc(Cl)cc1 [N-213] | 5000 to 10000 | < 200 | – | < 100 |
| CC(CCc1ccccc1)NC1=Nc2ccccc2NC12CCNCC2 (stereo not drawn) [N-222] | 20000 to 50000 | < 50 | – | < 200 |
| c1ccc(C(CNC2=Nc3ccccc3NC23CCOCC3)c2ccccc2)cc1 [O/S-352] | 20000 to 50000 | < 1000 | – | < 1000 |
| Fc1ccc(CNC2=Nc3ccccc3NC23CCCCC3)c(F)c1 [C-231] | 20000 to 50000 | < 1000 | – | < 500 |
| Clc1cccc(CCNC2=Nc3ccccc3NC23CCNCC3)c1 [N-79] | 2000 to 5000 | < 50 | – | < 100 |
| Cc1cc2c(cc1C)NC1(CCN(C)CC1)C(NCc1ccccc1)=N2 [N-233] | 10000 to 20000 | < 100 | – | < 200 |
| COc1cccc(CNC2=Nc3ccccc3NC23CCCCCC3)c1 [C-224] | 20000 to 50000 | < 1000 | – | < 500 |
| COc1cccc(CNC2=Nc3ccccc3NC23CCCCC3)c1 [C-47] | 20000 to 50000 | < 1000 | – | < 500 |
| Fc1cccc(CNC2=Nc3ccccc3NC23CCCCC3)c1 [C-5] | 20000 to 50000 | < 5000 | – | < 500 |
